Structures are written as SMILES.

The record followed here is ChEMBL document CHEMBL3397013, “Target engagement in lead generation” (Bioorg Med Chem Lett, 2015).

Series [1] deals with cAMP and cAMP-inhibited cGMP 3',5'-cyclic phosphodiesterase 10A (Homo sapiens, UniProt Q9Y233). In words: Inhibition of human PDE10A.
Series [2] in a line: Inhibition of human PDE isoforms.
The test system of series [3] is Rattus norvegicus. Kind of series: Induction of prolongation of micturition interval in orally dosed Sprague-Dawley rat model of 8-OH-DPAT induced overactive bladder by cystometric study. Particulars: po, read-out: MED. The format is functional.
The test system of series [4] is Rattus norvegicus. In words: Binding affinity to 5HT1A receptor in Sprague-Dawley rat at 0.3 to 10 mg/kg, po after 2 to 8 hrs by PET imaging method. It is filed as functional, organism-based. The arrangement: route oral.
For series [5], the system named is Lung. Kind of series: Drug level in rat lung at 2.3 mg/kg dosed via inhalation measured post cell suspension. It is filed as ADME, organism-based. To be noted: in vivo, inhaled_or_intranasal, read-out: Drug uptake. The arrangement: dose 2.3 mg/kg.
For series [6], the target named is T1, Tyrosine-protein kinase ITK/TSK (Homo sapiens) (UniProt Q08881).
T1 sequence (whole entry): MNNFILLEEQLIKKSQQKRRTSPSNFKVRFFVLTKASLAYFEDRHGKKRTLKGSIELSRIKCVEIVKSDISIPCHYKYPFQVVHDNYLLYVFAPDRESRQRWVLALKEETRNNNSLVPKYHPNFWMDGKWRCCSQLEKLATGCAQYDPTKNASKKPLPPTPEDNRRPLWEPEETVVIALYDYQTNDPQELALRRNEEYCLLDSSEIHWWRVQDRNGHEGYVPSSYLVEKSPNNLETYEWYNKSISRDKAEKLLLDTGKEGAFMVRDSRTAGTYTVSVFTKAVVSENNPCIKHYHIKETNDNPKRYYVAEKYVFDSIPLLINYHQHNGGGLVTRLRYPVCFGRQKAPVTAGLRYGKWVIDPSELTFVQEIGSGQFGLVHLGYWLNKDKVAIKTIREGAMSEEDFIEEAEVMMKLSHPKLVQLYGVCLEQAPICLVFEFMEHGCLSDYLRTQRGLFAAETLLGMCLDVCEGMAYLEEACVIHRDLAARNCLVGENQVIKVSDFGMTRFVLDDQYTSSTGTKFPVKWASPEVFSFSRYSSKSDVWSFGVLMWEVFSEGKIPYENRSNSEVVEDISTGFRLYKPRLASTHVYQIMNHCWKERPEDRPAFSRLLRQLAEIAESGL
Kind of series: Inhibition of human ITK assessed as ratio of Kinact to Ki.

Series [7] relates to Lung. Kind of series: Drug level in rat lung at 2.3 mg/kg dosed via inhalation measured post perfusion. It is filed as ADME, organism-based. The arrangement: dose 2.3 mg/kg. Particulars: in vivo, inhaled_or_intranasal, read-out: Drug uptake.
The target of series [8] is T2, Tyrosine-protein kinase ITK/TSK (Homo sapiens, UniProt Q08881).
T2 sequence (Q08881 whole entry): T1 sequence (whole entry)
In words: Inhibition of human ITK.

Series [9] addresses Tyrosine-protein kinase BTK (Homo sapiens, UniProt Q06187). In words: Inhibition of BTK (unknown origin) using ATP and Y5 Sox15 substrate mix incubated for 30 mins by fluorescence based assay.

Chain of Tyrosine-protein kinase BTK (Q06187 whole entry): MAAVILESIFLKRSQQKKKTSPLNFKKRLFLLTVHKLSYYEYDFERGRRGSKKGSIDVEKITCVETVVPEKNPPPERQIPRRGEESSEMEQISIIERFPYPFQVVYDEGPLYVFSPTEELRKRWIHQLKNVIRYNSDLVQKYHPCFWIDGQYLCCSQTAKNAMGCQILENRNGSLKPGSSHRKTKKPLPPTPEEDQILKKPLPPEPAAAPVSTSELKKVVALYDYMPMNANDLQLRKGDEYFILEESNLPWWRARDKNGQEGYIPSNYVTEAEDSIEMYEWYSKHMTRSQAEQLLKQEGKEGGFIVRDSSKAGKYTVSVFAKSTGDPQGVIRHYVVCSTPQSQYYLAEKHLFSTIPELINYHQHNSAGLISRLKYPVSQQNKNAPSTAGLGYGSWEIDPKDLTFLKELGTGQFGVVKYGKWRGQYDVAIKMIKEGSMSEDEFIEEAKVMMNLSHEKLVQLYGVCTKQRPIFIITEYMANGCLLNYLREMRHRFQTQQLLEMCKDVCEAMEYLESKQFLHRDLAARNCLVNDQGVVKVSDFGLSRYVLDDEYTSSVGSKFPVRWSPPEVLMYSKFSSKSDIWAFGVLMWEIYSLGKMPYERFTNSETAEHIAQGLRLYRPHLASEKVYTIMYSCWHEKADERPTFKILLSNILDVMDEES
Chain of cAMP and cAMP-inhibited cGMP 3',5'-cyclic phosphodiesterase 10A (Q9Y233 whole entry, canonical isoform): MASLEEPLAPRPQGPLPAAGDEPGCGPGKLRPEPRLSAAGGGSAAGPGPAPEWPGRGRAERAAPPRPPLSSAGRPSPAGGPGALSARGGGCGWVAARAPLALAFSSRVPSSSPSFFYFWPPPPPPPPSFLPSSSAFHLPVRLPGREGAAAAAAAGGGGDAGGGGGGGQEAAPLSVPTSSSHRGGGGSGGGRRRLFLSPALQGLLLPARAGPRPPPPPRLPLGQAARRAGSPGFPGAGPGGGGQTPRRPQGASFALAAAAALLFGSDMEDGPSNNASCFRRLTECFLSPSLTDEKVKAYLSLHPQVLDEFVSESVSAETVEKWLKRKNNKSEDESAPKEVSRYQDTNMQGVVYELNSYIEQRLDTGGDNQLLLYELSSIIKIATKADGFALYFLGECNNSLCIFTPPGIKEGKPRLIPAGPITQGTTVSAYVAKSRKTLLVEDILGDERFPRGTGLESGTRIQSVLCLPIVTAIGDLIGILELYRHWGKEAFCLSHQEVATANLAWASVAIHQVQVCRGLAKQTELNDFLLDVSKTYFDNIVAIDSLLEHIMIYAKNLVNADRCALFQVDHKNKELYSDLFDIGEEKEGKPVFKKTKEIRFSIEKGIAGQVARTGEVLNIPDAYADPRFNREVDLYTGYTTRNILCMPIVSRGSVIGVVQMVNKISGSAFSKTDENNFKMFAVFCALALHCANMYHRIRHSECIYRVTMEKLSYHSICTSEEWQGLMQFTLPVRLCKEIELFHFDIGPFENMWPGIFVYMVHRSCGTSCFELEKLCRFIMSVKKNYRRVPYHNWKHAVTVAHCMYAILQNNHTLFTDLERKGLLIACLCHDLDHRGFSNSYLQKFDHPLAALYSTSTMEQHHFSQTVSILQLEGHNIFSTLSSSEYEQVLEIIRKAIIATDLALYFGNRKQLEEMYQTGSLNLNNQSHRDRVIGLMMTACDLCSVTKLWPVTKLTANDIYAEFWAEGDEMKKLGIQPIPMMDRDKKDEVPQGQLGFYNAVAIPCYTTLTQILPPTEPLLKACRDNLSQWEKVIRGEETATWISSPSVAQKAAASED

The term IC50 denotes the concentration that gives 50% inhibition. Consider `Cc1nc2ccccc2nc1-c1cc2nc(N3CC[C@@H](F)C3)cc(N([11CH3])C3CCOCC3)n2n1`, for which the values for the IC50 in [1] and in series [2] were 0.06 nM and above 1000 nM, respectively.

The EC50 is the concentration needed to bring the measured effect to its halfway point. A high value points to weaker potency. On to `CNC(=O)c1ccc2ccn(C3CCN(CCc4c(OC)ccc5c4OC(C)(C)CC5=O)CC3)c2c1.O=C(O)/C=C/C(=O)O`, for which the minimal effective dose in series [3] is 0.1 mg/kg. Moreover, the midpoint of the response in series [4], the EC50, lay at 5.4 nM.

`C=CC(=O)N1CC[C@H](Nc2cc(CN[C@@H](C)C(C)(C)C)cc(Nc3nc4cccnc4s3)n2)C1`: the concentration in series [5] turned out to be 0.008 µM; in series [7], 6 µM. Further, the Ratio in [6] amounted to 520000 M⁻¹ s⁻¹. The molecule further returned an IC50 in series [8] of 5 nM.

As to `C=CC(=O)Nc1cccc(N(C)c2nc(Nc3cccc(OCCCN(C)C(=O)CCCC(=O)NCCCOCCOCCOCCCNC(=O)CCCC[C@H]4SC[C@H]5NC(=O)N[C@H]54)c3)ncc2C)c1`, in [9], the IC50 amounted to 0.5 nM.
